The test system of this assay is Hh signaling pathway. As to the kind of experiment: NIH3T3-GRE-Luc luciferase reporter assay (primary assay). In kind it is cell-based. An excerpt: NIH3T3 cells (CRL-1658, ATCC) were maintained in DMEM (Gibico) supplemented with 10% FBS (Hyclone). GRE-Luc plasmid was generated by inserting 8×Gli-1 responsive element (GRE) into the multiple cloning site of pGL4.26 vector (Promega). NIH3T3-GRE-Luc reporter cell line was established by hygromycin (Invitrogen) selection after transfected with GRE-Luc luciferase reporter plasmid. Single clones were validated by the induction of luciferase by recombinant sonic hedgehog (sHh) protein or small molecule agonist SAG (ABIN629346). Selected clone was used to monitor the Hh signaling.
The NIH3T3-GRE-Luc cells were maintained in complete culture medium (DMEM with 4 mM L-Gln, 1.5 g/L sodium bicarbonate and 4.5 g/L glucose supplemented with 100 μg/mL hygromycin and 10% FBS). When confluent, the cells were trypsinized and re-suspended in assay medium (0.5% serum-containing DMEM). After 100 µL/well of cells suspension was added to the 96-well-plate (Final cell concentration is 15,000 cells/well), cells were cultured for additional 48 hours before adding the compounds.
Compounds were serially diluted in DMSO and further diluted with assay medium. In an embodiment, 10 nM SAG was added in assay medium as the agonist of Hh signaling. After the compounds and agonist were prepared, the medium was removed carefully. 100 μL of assay medium containing compound and agonist was added to the cell with care. Cell plates were incubated at 37° C. for additional 48 hours.
Following the 48 hours incubation, 40 μL/well of luciferase media (Brigh-Glo, Promega) was added to the cells. The plate was incubated at room temperature for 5 minutes under gentle shaking. Luminescence signal was measured with plate reader (PHERAstar FS, BMG). The potency of compounds was calculated based on the inhibition of luminescence signaling.
NIH3T3 cells (CRL-1658, ATCC) were maintained in DMEM (11965, Gibico) supplemented with 10% FBS (Hyclone). GRE-Luc plasmid was generated by cloning 8×Gli-1 responsive element (GRE) into the MCS of pGL4.26 (Promega). NIH3T3-GRE-Luc reporter cell lines were established by hygromycin (Invitrogen) selection after transfection with GRE-Luc luciferase reporter plasmid. Single clones were validated for the assay quality with N-terminal fragment of recombinant sonic hedgehog protein or small molecule agonist SAG (ABIN629346). Selected clone were used to monitor the Hh signaling.
The NIH3T3-GRE-Luc cells were maintained in complete culture medium (DMEM with 4 mM L-Gln, 1.5 g/L sodium bicarbonate and 4.5 g/L glucose supplemented with 100 ug/ml hygromycin and 10% FBS). When confluent, the cells were trypsinized and resuspended in assay medium (0.5% serum-containing DMEM). After 100 ul/well of cells suspension was added to the 96-well-plate (Final cell concentration is 15,000 cells/well), cells were cultured for additional 48 hours before adding the compounds.
Compounds were serially diluted in DMSO and further diluted with assay medium. In an embodiment, 10 nM SAG was added in assay medium as the agonist of Hh signaling. After the compounds and agonist were prepared, carefully remove medium (Aspirate the medium with pipette instead of vacuum, or else the NIH3T3 cells monolayer will be detached). 100 ul of assay medium containing compound or agonist was added to the cell with care. Cell plates were incubated at 37 degree for additional 48 hours.
Following the 48 hours incubation, 40 ul/well of luciferase media (Brigh-Glo, Promega) was added to the cells. The plate was incubated at room temperature for 5 min under gentle shaking. Luminescence signal was measured with plate reader (PHERAstar FS, BMG). The potency of compounds was calculated basing on the inhibition of luminescence signaling.

The mark [1] stands for this setting: 48 h, 10 nM SAG as agonist, 48 hours, read-out: Effect IC50 (nM)(GRE reporter assay).
Setting [2] is: IC50 of vismodegib over that of the tested compound in the same assay.
Where [3] appears, read: IC50 value of Vismodegib over that of the tested compound in the same assay.
Setting [4] is: primary assay, Table 5, read-out: SMO IC50.

Where two headings read alike, the source gives them in different places.

On to `Cc1cnc(-c2cc(N3CCc4nc(N5CCC(O)CC5)ncc4C3C)ncc2Cl)c(C)c1` (racemic) [B], for which the IC50 by setting is: under setting [1], 2.7 nM; under setting [4], 2.7 nM; (read-out: IC50 (Hh pathway)) 2.7 nM. Further, the Ratio under setting [2] was determined as 5.0 and the Ratio under setting [3] was determined as 5.0.
Turning to `Cc1cnc(-c2cc(N3CCc4nc(N5CCC(O)CC5)ncc4[C@H]3C)ncc2Cl)c(C)c1` [Compound B1, (R)-1-(6-(5′-chloro-3,5-dimethyl-[2,4′-bipyridin]-2′-yl)-5-methyl-5,6,7,8-tetrahydropyrido[4,3-d]pyrimidin-2-yl)piperidin-4-ol], the “Hh pathway inhibitory activity compared to compound B2 of S configuration” value was “more than 20 fold” and the “increase of inhibitory activity against Hedgehog pathway compared with A-55” value is given as “about 12 folds”. For the same compound, the 50% inhibitory concentration (IC50) under setting [1] was found to be 0.8 nM. Further, the Ratio under setting [2] is 22.4. Besides, the Ratio under setting [3] turned out to be 22.4. In addition, the “increase of Hh pathway inhibitory activity compared to racemic compound B” value (chiral compound vs racemic compound) is listed as “about 3 fold”. Further, under setting [4], the IC50 is 0.8 nM. For the setting “read-out: IC50 (Hh pathway)”, the IC50 came to 0.8 nM.

For the origin of these results see patent publication US10919889B2, “Chiral heterocyclic compound with hedgehog pathway antagonist activity, method and use thereof” (SUZHOU KINTOR PHARMACEUTICALS, INC., priority 2016, dated 2021).
